Measurements from patent publication US4847387A, “Antibiotic compounds DC-92B and DC-92D” (Kyowa Hakko Kogyo Co., Ltd., priority 1986, dated 1989).
In brackets after ≈: the same amount, converted by molar mass. Like-named read-outs stand apart in the source and are kept apart here.

How the values were obtained:
[1] = system: Bacillus subtilis No. 10707; assay: Minimum inhibitory concentration, agar dilution method; type: cell-based
Description: (§1) (A) Minimum Inhibitory Concentration Against Various Bacteria (MIC: μg/ml)
(§2) The antibacterial activity was evaluated by the agar dilution method using a medium (pH 7) prepared by dissolving 3 g of Bacto-Tryptone (Difco Laboratories), 3 g of meat extract, 1 g of yeast extract, 1 g of glucose and 16 g of agar in 1 liter of water.

Escherichia coli ATCC 26 = assay: as above; type: cell-based
Description: as §1, §2

[2] = system: Klebsiella pneumoniae ATCC 10031; assay: as above; type: cell-based
Description: as §1, §2

[3] = system: Salmonella typhosa ATCC 9992; assay: as above; type: cell-based; conditions: Salmonella enterica
Description: as §1, §2

[4] = system: Shigella sonnei ATCC 9290; assay: as above; type: cell-based
Description: as §1, §2

[5] = system: Staphylococcus aureus ATCC 6538P; assay: as above; type: cell-based; conditions: ATCC6538P, pH 7, read-out: Minimum Inhibitory Concentration (MIC)
Description: as §1, §2

in vivo = conditions: mouse, ip, mice, intraperitoneal administration, read-out: acute toxicity value (LD50)
[6] = system: Sarcoma 180 ascites tumor; assay: Therapeutic effect against Sarcoma 180 tumor; type: in vivo, male ddY-strain mice; conditions: ten days after implantation
Description: Six male ddY-strain mice each having a weight of about 20 g were used for each group as test animals, and 5×10^6 cells of Sarcoma 180 ascites tumor were implanted subcutaneously into the animals at the axilla. 0.2 ml of phosphate buffered saline (hereinafter referred to as PBS) containing DC-92B or DC-92D at various concentrations was administered once intraperitoneally 24 hours after implantation. The composition of PBS was 0.8 g/dl NaCl, 0.02 g/dl KCl, […] Na2 HPO4 and 0.02 g/dl KH2 PO4 (pH 7.2).
(§3) For comparison, 0.2 ml of PBS containing mitomycin C was intraperitoneally administered to a group of animals 24 hours after tumor implantation.

[7] = system: lymphocytic leukemia P388 tumor; assay: Therapeutic effect against lymphocytic leukemia P388 tumor; type: in vivo, male CDF1 mice
Description: Five male CDF1 mice each having a weight of about 22 g were used for each group as test animals, and 1×10^6 cells of lymphocytic leukemia P388 tumor were implanted intraperitoneally into the test animals. 0.2 ml of PBS containing DC-92B or DC-92D was administered once intraperitoneally 24 hours after implantation.
as §3
*Continuous administration for five days

Basicity = type: physicochemical
[8] = 0.31 mg/kg, once i.p. 24 h after implantation
[9] = 0.0125 mg/kg, continuous administration for five days
[10] = 0.025 mg/kg, continuous administration for five days
[11] = 0.15 mg/kg, once i.p. 24 h after implantation
[12] = methanol, ethanol, acetone, chloroform, ethyl acetate, toluene and dimethylsulfoxide
[13] = 1.563 mg/kg, once i.p. 24 h after implantation
[14] = 3.125 mg/kg, once i.p. 24 h after implantation
[15] = 6.25 mg/kg, once i.p. 24 h after implantation
[16] = 0.39 mg/kg, once i.p. 24 h after implantation
[17] = 0.78 mg/kg, once i.p. 24 h after implantation
[18] = 1.56 mg/kg, once i.p. 24 h after implantation
[19] = 3.13 mg/kg, once i.p. 24 h after implantation
[20] = 6.0 mg/kg, i.p. 24 h after implantation

SMILES: Cc1cc2c(c3oc(C4(C)OC4C4OC4(C)C)cc(=O)c13)C(=O)c1c(O)c(C3CC(C)(N(C)C)C(O)C(C)(O)O3)cc(C3CC(N(C)C)C(O)C(C)O3)c1C2=O (stereo not drawn) [DC-92B]
- MIC ([1]; NO.10707, pH 7, read-out: Minimum Inhibitory Concentration (MIC)): 0.15 µg/mL (≈ 0.193 µM)
- MIC (Escherichia coli ATCC 26; ATCC26, pH 7, read-out: Minimum Inhibitory Concentration (MIC)): 10 µg/mL (≈ 12.9 µM)
- MIC ([2]; ATCC10031, pH 7, read-out: Minimum Inhibitory Concentration (MIC)): 2.5 µg/mL (≈ 3.22 µM)
- MIC ([3]; pH 7, read-out: Minimum Inhibitory Concentration (MIC)): 40 µg/mL (≈ 51.5 µM)
- MIC ([4]; ATCC9290, pH 7, read-out: Minimum Inhibitory Concentration (MIC)): 10 µg/mL (≈ 12.9 µM)
- MIC [5]: 0.04 µg/mL (≈ 0.0515 µM)
- LD50 (in vivo): ~0.31 mg/kg
- Average tumor volume [6, 8]: 828.6 mm^3
- T/C (average tumor volume) [6, 8]: 0.39
- Increased Life Span (T/C) [7, 9]: 1.41
- Survival days (mean) [7, 9]: 15.5 days
- Increased Life Span (T/C) [7, 10]: 1.41
- Survival days (mean) [7, 10]: 15.5 days
- Increased Life Span (T/C) [7, 11]: 1.47
- Survival days (mean) [7, 11]: 16.2 days
- Basicity (Basicity): Weakly basic
- Solubility (Solubility; [12]): Soluble
- Solubility (Solubility; water and hexane): sparingly soluble

SMILES: Cc1cc2c(c3oc(C4(C)OC4C4OC4(C)C)cc(=O)c13)C(=O)c1c(O)c(C3CC(C)(N(C)C)C(O)C(C)(O)O3)cc(C3=CC(N(C)C)C(O)C(C)O3)c1C2=O (stereo not drawn) [DC-92D]
- MIC ([1]; NO.10707, agar dilution, pH 7, read-out: Minimum Inhibitory Concentration (MIC)): 3 µg/mL (≈ 3.87 µM)
- MIC (Escherichia coli ATCC 26; ATCC26, agar dilution, pH 7, read-out: Minimum Inhibitory Concentration (MIC)): 100 µg/mL (≈ 129 µM)
- MIC ([2]; ATCC10031, agar dilution, pH 7, read-out: Minimum Inhibitory Concentration (MIC)): 25 µg/mL (≈ 32.3 µM)
- MIC ([3]; agar dilution, pH 7, read-out: Minimum Inhibitory Concentration (MIC)): 100 µg/mL (≈ 129 µM)
- MIC ([4]; ATCC9290, agar dilution, pH 7, read-out: Minimum Inhibitory Concentration (MIC)): 100 µg/mL (≈ 129 µM)
- MIC ([5]; agar dilution): 1.5 µg/mL (≈ 1.94 µM)
- LD50 (in vivo): ~5.6 mg/kg
- Average tumor volume [6, 13]: 1444.8 mm^3
- T/C (average tumor volume) [6, 13]: 0.68
- Average tumor volume [6, 14]: 679.9 mm^3
- T/C (average tumor volume) [6, 14]: 0.32
- Average tumor volume [6, 15]: 764.9 mm^3
- T/C (average tumor volume) [6, 15]: 0.36
- Increased Life Span (T/C) [7, 16]: 1.04
- Survival days (mean) [7, 16]: 11.4 days
- Survival days (mean) ([7]; 0.75 mg/kg, 120 h): 17.4 days
- Increased Life Span (T/C) ([7]; 0.75 mg/kg, continuous administration for five days): 1.58
- Increased Life Span (T/C) [7, 17]: 1.17
- Survival days (mean) [7, 17]: 12.9 days
- Increased Life Span (T/C) [7, 18]: 1.15
- Survival days (mean) [7, 18]: 12.7 days
- Increased Life Span (T/C) [7, 19]: 0.69
- Survival days (mean) [7, 19]: 7.6 days
- Basicity (Basicity): Weakly basic
- Solubility (Solubility; [12]): Soluble
- Solubility (Solubility; water and hexane): sparingly soluble

SMILES: CO[C@@]12[C@H](COC(N)=O)C3=C(C(=O)C(C)=C(N)C3=O)N1C[C@@H]1N[C@@H]12 [Mitomycin C, reference compound]
- Average tumor volume [6, 20]: 743.8 mm^3
- T/C (average tumor volume) [6, 20]: 0.35
- Increased Life Span (T/C) [7, 20]: 1.63
- Survival days (mean) [7, 20]: 17.9 days
